system: alpha-MyHC; experiment: alpha-MyHC cytoblot in neonatal rat ventricular myocytes (NRVM); format: cell-based; conditions: Rattus norvegicus, Ventricular myocyte, Table 1, 72 hours, concentration giving 50% of maximum response
Method: In vitro activity of each compound is measured using the alpha-MyHC cytoblot process. Briefly, neonatal rat ventricular myocytes (NRVM) at 120,000 cells/ml in HyQ DME/High modified culture media supplemented with 10% charcoal/dextran treated FBS, 0.1% Nutridoma-SP, 1:100 MEM non-essential amino acids, 1:50 MEM amino acids solution w/o L-Gln, 1 mM sodium pyruvate and 1:100 P/S/G, are plated on gelatin coated sterile 384-well plates (Costar 3712) at 6,000 cells per well. Cells are incubated overnight at 37° C. in 5% CO2 100% humidity. Following overnight growth the media is changed to HyQ DME/High modified culture media supplemented with 0.3% Nutridoma-SP, 1:100 MEM non-essential amino acids, 1:50 MEM amino acids solution w/o L-Gln, 1 mM sodium pyruvate and 1:100 P/S/G. Cells are then dosed with serial dilutions of each compound in DMSO. Each concentration in the dose range is dosed in quadruplicate. Dosing is done in such a way so that the final DMSO concentration was 0.44%. Compound dilutions are 3-fold with the final top concentration of 10 uM. […] Following dosing, the cells are incubated for 72 hours at 37° C. in 5% CO2 100% humidity and then processed with the cytoblot method. Briefly, cell media is aspirated and cell monolayers washed with PBS and fixed with 100% methanol for 30 minutes. Fixed cells are then blocked with PBS, 0.05% Tween-20, 1% BSA, for 1 hour. Following blocking, cells are incubated with primary alpha-MyHC-specific antibody (1:30 dilution of BA-G5 hybridoma conditioned media, ATCC HB276) for 1 hour. Following incubation with the primary antibody, cells are washed with PBS, 0.05% Tween-20, 1% BSA and incubated with secondary antibody (1:1000 dilution, goat-anti-mouse HRP, Southern Biotech, 1031-05) for 1 hour. Following incubation with the secondary antibody, wells are washed and incubated in SuperSignal, West Dura HRP-luminescence substrate for 30 seconds under shaking at room temperature. Luminescence is measured using a Packard Fusion plate reader. […] RLU values are converted into percent fraction of low control and dose responses are fitted to a sigmoidal 4-parameter equation (XLFit, IDBS) where the EC50 and Max Plateau values were extracted. […] Max Plateau is the […] maximum value determined by the dose response fit.

EC50 [nM] | Compound
4.02 | CCC(=O)C1=C(CC)Nc2sc(C(=O)c3ccc(F)c(F)c3)c(N)c2C1c1ccccc1F (centres unmarked) [Compound 108, 1-[3-amino-2-(3,4 difluoro-benzoyl)-6-ethyl-4-(2 fluoro-phenyl)-4,7 dihydro-thieno[2,3-b]pyridine-5-yl]propan-1-one]

same assay, conditions: Rattus norvegicus, Ventricular myocyte, Table 2, 72 hours, concentration giving 50% of maximum response

EC50 [nM] | Compound
21.9 | CCOC(=O)C1=C(CC)Nc2sc(C(=O)c3cccnc3)c(N)c2C1c1ccncc1F (centres unmarked) [Compound 174, 3-amino-6-ethyl-4-(3 fluoro-pyridin-4-yl)-2-(pyridine-3-carbonyl)-4,7 dihydro-thieno[2,3-b]pyridine-5-carboxylic acid ethyl ester]

same assay, conditions: Rattus norvegicus, Ventricular myocyte, Table 4, 72 hours, concentration giving 50% of maximum response

EC50 [nM] | Compound
936 | CCOC(=O)C1=C(C)Nc2sc(C(=O)c3ccccc3)c(N)c2C1(C)c1ccccc1 (centres unmarked) [Compound 206]
3340 | CC(=O)C1=C(C)Nc2sc(C(=O)c3ccc(Cl)c(Cl)c3)c(N)c2C1(C)c1cccc(F)c1 (centres unmarked) [Compound 207, 1-[3-amino-2-(3,4 dichloro-benzoyl)-4-(3 fluoro-phenyl)-4,6-dimethyl-4,7 dihydro-thieno[2,3-b]pyridin-5-yl]-ethanone]

same assay, conditions: Rattus norvegicus, Ventricular myocyte, Table 5, 72 hours, concentration giving 50% of maximum response

EC50 [nM] | Compound
3430 | CC(=O)C1=C(C)N(C)c2sc(C(=O)c3ccccc3)c(N)c2C1c1ccccc1 (centres unmarked) [Compound 208, 1-(3-amino-2-benzoyl-6,7 dimethyl-4-phenyl-4,7 dihydro-thieno[2,3-b]pyridin-5-yl)-ethanone]

same assay, conditions: Table 1, 72 hours, fitted maximum, percent fraction of low control (vehicle), in %

Compound | Max Plateau
CCC(=O)C1=C(CC)Nc2sc(C(=O)c3ccccc3Br)c(N)c2C1c1ccccc1 (centres unmarked) [Compound 106] | 244.21 ± 29.53
CCC(=O)C1=C(CC)Nc2sc(C(=O)c3c(Cl)cccc3Cl)c(N)c2C1c1ccccc1F (centres unmarked) [Compound 107] | 273.85 ± 29.06
CCC(=O)C1=C(CC)Nc2sc(C(=O)c3ccc(C#N)cc3)c(N)c2C1c1ccccc1 (centres unmarked) [Compound 112] | 266.67 ± 57.74

same assay, conditions: Table 2, 72 hours, fitted maximum, percent fraction of low control (vehicle), in %

Compound | Max Plateau
CCOC(=O)C1=C(C)Nc2sc(C(=O)c3ccc(Cl)c(Cl)c3)c(N)c2C1c1ccccc1 (centres unmarked) [Compound 113] | 256.38
COC(=O)C1=C(C(C)C)Nc2sc(C(=O)c3ccc(Cl)c(Cl)c3)c(N)c2C1c1ccccc1 (centres unmarked) [Compound 116] | 107.57
COCCOC(=O)C1=C(C)Nc2sc(C(=O)c3ccc(Cl)c(Cl)c3)c(N)c2C1c1ccccc1 (centres unmarked) [Compound 119] | 234.93
COCC1=C(C(=O)OC)C(c2ccccc2)c2c(sc(C(=O)c3ccc(Cl)c(Cl)c3)c2N)N1 (centres unmarked) [Compound 120] | 140.79
COC(=O)C1=C(C(C)(C)C)Nc2sc(C(=O)c3ccc(Cl)c(Cl)c3)c(N)c2C1c1ccccc1 (centres unmarked) [Compound 131] | 158.97
COC(=O)C1=C(C2CC2)Nc2sc(C(=O)c3ccc(Cl)c(Cl)c3)c(N)c2C1c1ccccc1 (centres unmarked) [Compound 133] | 180.24
COC(=O)C1=C(C(C)C)Nc2sc(C(=O)c3ccc(Cl)c(Cl)c3)c(N)c2C1c1cccc([N+](=O)[O-])c1 (centres unmarked) [Compound 134] | 98.33
CC1=C(C(=O)OC(C)C)C(c2ccccc2)c2c(sc(C(=O)c3ccc(Cl)c(Cl)c3)c2N)N1 (centres unmarked) [Compound 135] | 186.32
CCC1=C(C(=O)OC)C(c2c(F)cccc2F)c2c(sc(C(=O)c3ccc(Cl)c(Cl)c3)c2N)N1 (centres unmarked) [Compound 137] | 213.90
CCC1=C(C(=O)OC)C(c2ccccc2)c2c(sc(C(=O)c3cccc([N+](=O)[O-])c3)c2N)N1 (centres unmarked) [Compound 139] | 281.08
CCC1=C(C(=O)OC)C(c2ccccc2F)c2c(sc(C(=O)c3cccc([N+](=O)[O-])c3)c2N)N1 (centres unmarked) [Compound 140] | 266.63
CCC1=C(C(=O)OC)C(c2c(F)cccc2F)c2c(sc(C(=O)c3cccc([N+](=O)[O-])c3)c2N)N1 (centres unmarked) [Compound 141] | 261.69
CCOC(=O)C1=C(CC)Nc2sc(C(=O)c3ccc(Cl)c(Cl)c3)c(N)c2C1c1ccccc1F (centres unmarked) [Compound 142] | 194.32
CCC1=C(C(=O)OC)C(c2ccccc2)c2c(sc(C(=O)c3cccc(C#N)c3)c2N)N1 (centres unmarked) [Compound 143] | 290.53
COC(=O)C1=C(C2CC2)Nc2sc(C(=O)c3ccc(Cl)c(Cl)c3)c(N)c2C1c1ccccc1F (centres unmarked) [Compound 144] | 187.17
CCOC(=O)C1=C(CC)Nc2sc(C(=O)c3ccc(Cl)cc3Cl)c(N)c2C1c1ccccc1 (centres unmarked) [Compound 145] | 224.48
CCOC(=O)C1=C(CC)Nc2sc(C(=O)c3cc(Cl)ccc3Cl)c(N)c2C1c1ccccc1 (centres unmarked) [Compound 146] | 213.49

Compound | Max Plateau
CCOC(=O)C1=C(CC)Nc2sc(C(=O)c3cc(C(F)(F)F)cc(C(F)(F)F)c3)c(N)c2C1c1ccccc1 (centres unmarked) [Compound 149] | 207.18
CCC1=C(C(=O)OC)C(c2ccccc2F)c2c(sc(C(=O)c3ccc(Cl)c(C)c3)c2N)N1 (centres unmarked) [Compound 150] | 228.28
CCOC(=O)C1=C(CC)Nc2sc(C(=O)c3cc(F)cc(F)c3)c(N)c2C1c1ccccc1 (centres unmarked) [Compound 151] | 273.61
CCOC(=O)C1=C(CC)Nc2sc(C(=O)c3cccc(C(=O)O)c3)c(N)c2C1c1ccccc1 (centres unmarked) [Compound 152] | 238.69
CCC1=C(C(=O)OC)C(c2ccc(F)cc2F)c2c(sc(C(=O)c3ccc(Cl)c(Cl)c3)c2N)N1 (centres unmarked) [Compound 153] | 234.66
COC(=O)C1=C(CCc2ccccc2)Nc2sc(C(=O)c3ccc(Cl)c(Cl)c3)c(N)c2C1c1ccccc1F (centres unmarked) [Compound 154] | 125.87
CCC1=C(C(=O)OC)C(c2cccc(Cl)c2F)c2c(sc(C(=O)c3ccc(Cl)c(Cl)c3)c2N)N1 (centres unmarked) [Compound 155] | 224.86
CCC1=C(C(=O)OC)C(c2cccc(Cl)c2F)c2c(sc(C(=O)c3cccc([N+](=O)[O-])c3)c2N)N1 (centres unmarked) [Compound 156] | 243.78
CCC1=C(C(=O)OC2CCCCC2)C(c2ccccc2)c2c(sc(C(=O)c3ccc(Cl)c(Cl)c3)c2N)N1 (centres unmarked) [Compound 160] | 186.95
CCC1=C(C(=O)OCC(C)C)C(c2ccccc2)c2c(sc(C(=O)c3ccc(Cl)c(Cl)c3)c2N)N1 (centres unmarked) [Compound 161] | 232.35
CCC1=C(C(=O)OC)C(c2ccccc2F)c2c(sc(C(=O)c3cccc(C#N)c3)c2N)N1 (centres unmarked) [Compound 164] | 279.90
CCC1=C(C(=O)OC)C(c2ccccc2F)c2c(sc(C(=O)c3cccc(Cl)c3)c2N)N1 (centres unmarked) [Compound 167] | 255.95
CCOC(=O)C1=C(CC)Nc2sc(C(=O)c3ccc(Cl)c(Cl)c3)c(N)c2C1c1ccncc1F (centres unmarked) [Compound 168] | 239.64
CCOC(=O)C1=C(CC)Nc2sc(C(=O)c3ccc(Cl)c(Cl)c3)c(N)c2C1c1ccncc1Cl (centres unmarked) [Compound 169] | 261.04
CCC1=C(C(=O)OC)C(c2cc(F)cc(F)c2)c2c(sc(C(=O)c3ccc(F)c(F)c3)c2N)N1 (centres unmarked) [Compound 170] | 262.16
CCC1=C(C(=O)OC)C(c2cc(F)cc(F)c2)c2c(sc(C(=O)c3ccccc3)c2N)N1 (centres unmarked) [Compound 172] | 304.08
CCOC(=O)C1=C(CC)Nc2sc(C(=O)c3ccc(F)c(F)c3)c(N)c2C1c1ccncc1F (centres unmarked) [Compound 173] | 257.43

same assay, conditions: Table 4, 72 hours, concentration giving 50% of maximum response

EC50 [nM] | Compound
792 | CCOC(=O)C1=C(C)Nc2sc(C(=O)c3cccc(Br)c3)c(N)c2C1(C)c1ccccc1 (centres unmarked) [Compound 197]

same assay, conditions: Table 4, 72 hours, fitted maximum, percent fraction of low control (vehicle), in %

Compound | Max Plateau
CCOC(=O)C1=C(C)Nc2sc(C(=O)c3cccc(Br)c3)c(N)c2C1(C)c1ccccc1 (centres unmarked) [Compound 197] | 159.55 ± 10.94

From patent publication US20090306373A1, “4,7-DIHYDROTHIENO[2,3-B]PYRIDINE COMPOUNDS AND PHARMACEUTICAL COMPOSITIONS” (priority 2005, published 2009)
